These results are taken from ChEMBL document CHEMBL1153670 (Bioorg Med Chem Lett, 1995).

Series [1] relates to HCT-116. Put plainly: Potency relative to paclitaxel in a tubulin polymerization assay in HCT116 cell line. Format: functional, Homo sapiens.
The test system of series [2] is HCT-116. Put plainly: In vitro cytotoxicity was determined by inhibition against HCT116 cell line proliferation after 72 hours of incubation. Format: cell-based. The note with it: Homo sapiens, HCT-116, 72 h.
Series [3] deals with M109. The series is described as follows: In vivo cytotoxicity of intraperitoneally administered compound was determined against ip implanted murine M-109 lung carcinoma; NA means not active. The format is organism-based. As to conditions: mouse; call rule not given here.
Series [4] has as its system HCT-116. The series is described as follows: cells. As to conditions: Homo sapiens.
Series [5] deals with M109. Put plainly: In vivo cytotoxicity of intraperitoneally administered compound at dose 6 mg/kg/inj was determined against ip implanted murine M-109 lung carcinoma. The format is organism-based. The arrangement: route intraperitoneal. As to conditions: mouse.

A value given as a limit tells only on which side of the number the result lay.

For the compound `CC(=O)O[C@H]1C(=O)[C@@]2(C)C([C@H](OC(=O)c3ccccc3)[C@]3(O)C[C@H](OC(=O)[C@H](O)C(C=C(C)C)NC(=O)OC(C)(C)C)C(C)=C1C3(C)C)[C@]1(OC(=O)C3CC3)CO[C@@H]1C[C@@H]2O` (stereo partly drawn), the Tubulin polymerization ratio in series [1] came to 0.36. Also, the IC50 (commonly the concentration at which inhibition is half-maximal) in series [2] came to 7.7 nM; in series [4] it was 2.85 nM. The T/C entry in series [3] is reported as “Not Active”.

Take `CCCCC(=O)O[C@@]12CO[C@@H]1C[C@H](O)[C@@]1(C)C(=O)[C@H](OC(C)=O)C3=C(C)[C@@H](OC(=O)[C@H](O)C(NC(=O)c4ccccc4)c4ccccc4)C[C@@](O)([C@@H](OC(=O)c4ccccc4)C12)C3(C)C` (stereo partly drawn): the Tubulin polymerization ratio in series [1] turned out to be 1.04. Moreover, the IC50 in series [2] was found to be 2 nM; in series [4], 0.5 nM.

For the compound `CC(=O)O[C@H]1C(=O)[C@@]2(C)C([C@H](OC(=O)c3ccccc3)[C@]3(O)C[C@H](OC(=O)[C@H](O)C(NC(=O)c4ccccc4)c4ccccc4)C(C)=C1C3(C)C)[C@]1(OC(=O)N3CC3)CO[C@@H]1C[C@@H]2O` (stereo partly drawn), the IC50 in series [2] amounted to 15.6 nM; in series [4], 6.5 nM.

Regarding `CC(=O)O[C@H]1C(=O)[C@@]2(C)C([C@H](OC(=O)c3ccccc3)[C@]3(O)C[C@H](OC(=O)[C@H](O)C(NC(=O)c4ccccc4)c4ccccc4)C(C)=C1C3(C)C)[C@]1(OC(=O)C3CCC3)CO[C@@H]1C[C@@H]2O` (stereo partly drawn), the Tubulin polymerization ratio in series [1] is 0.44. Also, the IC50 turned out to be 1.5 nM in series [2] and 0.38 nM in series [4]. In series [3], the T/C entry is “Not Active”.

Turning to `CC(=O)O[C@H]1C(=O)[C@@]2(C)C([C@H](OC(=O)c3ccccc3)[C@]3(O)C[C@H](OC(=O)[C@H](O)C(NC(=O)c4ccccc4)c4ccccc4)C(C)=C1C3(C)C)[C@]1(OC(=O)C3CCCC3)CO[C@@H]1C[C@@H]2O` (stereo partly drawn), the Tubulin polymerization ratio in series [1] amounted to 1.54. For the same compound, the IC50 was determined as 2 nM in series [2] and 0.5 nM in series [4].

For `CC(=O)O[C@H]1C(=O)[C@@]2(C)C([C@H](OC(=O)c3ccccc3)[C@]3(O)C[C@H](OC(=O)[C@H](O)C(NC(=O)c4ccccc4)c4ccccc4)C(C)=C1C3(C)C)[C@]1(O)CO[C@@H]1C[C@@H]2O` (stereo partly drawn), the Tubulin polymerization ratio in series [1] worked out at 200. Moreover, the IC50 in series [2] was above 1000 nM; in series [4], above 200 nM.

Turning to `CC(=O)O[C@H]1C(=O)[C@@]2(C)C([C@H](OC(=O)c3ccccc3)[C@]3(O)C[C@H](OC(=O)[C@H](O)C(NC(=O)c4ccccc4)c4ccccc4)C(C)=C1C3(C)C)[C@]1(OC(=O)n3ccnc3)CO[C@@H]1C[C@@H]2O` (stereo partly drawn), the Tubulin polymerization ratio in series [1] amounted to 263. In addition, the IC50 was 803 nM in series [2] and 251 nM in series [4].

In the case of `CC(=O)O[C@H]1C(=O)[C@@]2(C)C([C@H](OC(=O)c3ccccc3)[C@]3(O)C[C@H](OC(=O)[C@H](O)C(NC(=O)c4ccccc4)c4ccccc4)C(C)=C1C3(C)C)[C@]1(OC(=O)NC3CCC3)CO[C@@H]1C[C@@H]2O` (stereo partly drawn), the Tubulin polymerization ratio in series [1] was 0.76. Also, the IC50 in series [2] stood at 9.2 nM; in series [4] it was 2.3 nM.

In the case of `CC(=O)O[C@H]1C(=O)[C@@]2(C)C([C@H](OC(=O)c3ccccc3)[C@]3(O)C[C@H](OC(=O)[C@H](O)C(NC(=O)OC(C)(C)C)c4ccco4)C(C)=C1C3(C)C)[C@]1(OC(=O)C3CCC3)CO[C@@H]1C[C@@H]2O` (stereo partly drawn), the Tubulin polymerization ratio in series [1] was determined as 0.48. Further, the IC50 worked out at 1.9 nM in series [2] and 0.48 nM in series [4]. Further, the T/C entry in series [3] is on record as “Not Active”.

Turning to `CCC(=O)O[C@@]12CO[C@@H]1C[C@H](O)[C@@]1(C)C(=O)[C@H](OC(C)=O)C3=C(C)[C@@H](OC(=O)[C@H](O)C(NC(=O)c4ccccc4)c4ccccc4)C[C@@](O)([C@@H](OC(=O)c4ccccc4)C12)C3(C)C` (stereo partly drawn), in series [1], the Tubulin polymerization ratio is given as 1.5. Moreover, the IC50 in series [2] is 2 nM; in series [4], 0.5 nM.

On to `COC(=O)O[C@@]12CO[C@@H]1C[C@H](O)[C@@]1(C)C(=O)[C@H](OC(C)=O)C3=C(C)[C@@H](OC(=O)[C@H](O)C(NC(=O)c4ccccc4)c4ccco4)C[C@@](O)([C@@H](OC(=O)c4ccccc4)C12)C3(C)C` (stereo partly drawn), for which, in series [1], the Tubulin polymerization ratio was found to be 0.33. The IC50 in series [2] worked out at 2.3 nM; in series [4], 0.57 nM. The T/C entry in series [3] was “Not Active”.

On to `CC(=O)O[C@H]1C(=O)[C@@]2(C)C([C@H](OC(=O)c3ccccc3)[C@]3(O)C[C@H](OC(=O)[C@H](O)C(NC(=O)c4ccccc4)c4ccccc4)C(C)=C1C3(C)C)[C@]1(OC(=O)c3ccc(F)cc3)CO[C@@H]1C[C@@H]2O` (stereo partly drawn), for which the Tubulin polymerization ratio in series [1] worked out at 61. The figures for the IC50 in series [2] and in series [4] were 790 nM and 198 nM, respectively.

On to `C=CC(=O)O[C@@]12CO[C@@H]1C[C@H](O)[C@@]1(C)C(=O)[C@H](OC(C)=O)C3=C(C)[C@@H](OC(=O)[C@H](O)C(NC(=O)c4ccccc4)c4ccccc4)C[C@@](O)([C@@H](OC(=O)c4ccccc4)C12)C3(C)C` (stereo partly drawn), for which the Tubulin polymerization ratio in series [1] is 0.42. The results for the IC50 in series [2] and in series [4] were 6 nM and 1.5 nM, respectively.

Regarding `CC(=O)O[C@H]1C(=O)[C@@]2(C)C([C@H](OC(=O)c3ccccc3)[C@]3(O)C[C@H](OC(=O)[C@H](O)C(NC(=O)c4ccccc4)c4ccccc4)C(C)=C1C3(C)C)[C@]1(OC(=O)CF)CO[C@@H]1C[C@@H]2O` (stereo partly drawn), the Tubulin polymerization ratio in series [1] came to 1.2. The figures for the IC50 in series [2] and in series [4] were 7 nM and 1.75 nM, respectively.

For the compound `CCCOC(=O)O[C@@]12CO[C@@H]1C[C@H](O)[C@@]1(C)C(=O)[C@H](OC(C)=O)C3=C(C)[C@@H](OC(=O)[C@H](O)C(NC(=O)c4ccccc4)c4ccccc4)C[C@@](O)([C@@H](OC(=O)c4ccccc4)C12)C3(C)C` (stereo partly drawn), in series [1], the Tubulin polymerization ratio is 0.76. In addition, the figures for the IC50 in series [2] and in series [4] were 2.6 nM and 0.67 nM, respectively.

Turning to `C/C=C/C(=O)O[C@@]12CO[C@@H]1C[C@H](O)[C@@]1(C)C(=O)[C@H](OC(C)=O)C3=C(C)[C@@H](OC(=O)[C@H](O)C(NC(=O)c4ccccc4)c4ccccc4)C[C@@](O)([C@@H](OC(=O)c4ccccc4)C12)C3(C)C` (stereo partly drawn), in series [1], the Tubulin polymerization ratio was 0.7. The IC50 in series [2] was 2.3 nM; in series [4] it was 0.58 nM.

Turning to `CCOC(=O)O[C@@]12CO[C@@H]1C[C@H](O)[C@@]1(C)C(=O)[C@H](OC(C)=O)C3=C(C)[C@@H](OC(=O)[C@H](O)C(NC(=O)c4ccccc4)c4ccco4)C[C@@](O)([C@@H](OC(=O)c4ccccc4)C12)C3(C)C` (stereo partly drawn), the Tubulin polymerization ratio in series [1] was 0.4. Moreover, the IC50 in series [2] worked out at 1.5 nM; in series [4] it was 0.43 nM. For the same compound, the T/C entry in series [3] is recorded as “Not Active”.

In the case of `CCOC(=O)O[C@@]12CO[C@@H]1C[C@H](O)[C@@]1(C)C(=O)[C@H](OC(C)=O)C3=C(C)[C@@H](OC(=O)[C@H](O)C(NC(=O)c4ccccc4)c4ccccc4)C[C@@](O)([C@@H](OC(=O)c4ccccc4)C12)C3(C)C` (stereo partly drawn), the Tubulin polymerization ratio in series [1] is listed as 0.64. In addition, the IC50 in series [2] worked out at 1 nM; in series [4], 0.25 nM. In series [5], this compound gave a T/C of 142 mg kg-1 injection-1.

Regarding `CCCCCC(=O)O[C@@]12CO[C@@H]1C[C@H](O)[C@@]1(C)C(=O)[C@H](OC(C)=O)C3=C(C)[C@@H](OC(=O)[C@H](O)C(NC(=O)c4ccccc4)c4ccccc4)C[C@@](O)([C@@H](OC(=O)c4ccccc4)C12)C3(C)C` (stereo partly drawn), the Tubulin polymerization ratio in series [1] was determined as 3.4. For the same compound, the IC50 came to 6 nM in series [2] and 1.5 nM in series [4].

For `CCCOC(=O)O[C@@]12CO[C@@H]1C[C@H](O)[C@@]1(C)C(=O)[C@H](OC(C)=O)C3=C(C)[C@@H](OC(=O)[C@H](O)C(NC(=O)OC(C)(C)C)c4ccco4)C[C@@](O)([C@@H](OC(=O)c4ccccc4)C12)C3(C)C` (stereo partly drawn), in series [1], the Tubulin polymerization ratio was found to be 0.71. In addition, the IC50 in series [2] was 3 nM; in series [4], 0.6 nM. For the same compound, the T/C entry in series [3] was “Not Active”.

`CC(=O)O[C@H]1C(=O)[C@@]2(C)C([C@H](OC(=O)c3ccccc3)[C@]3(O)C[C@H](OC(=O)[C@H](O)C(C=C(C)C)NC(=O)c4ccccc4)C(C)=C1C3(C)C)[C@]1(OC(=O)C3CC3)CO[C@@H]1C[C@@H]2O` (stereo partly drawn): the Tubulin polymerization ratio in series [1] worked out at 0.36. In addition, the figures for the IC50 in series [2] and in series [4] were 1.7 nM and 0.61 nM, respectively. Moreover, the T/C entry in series [3] is listed as “Not Active”.

As for `CC(=O)O[C@H]1C(=O)[C@@]2(C)C([C@H](OC(=O)c3ccccc3)[C@]3(O)C[C@H](OC(=O)[C@H](O)C(NC(=O)c4ccccc4)c4ccccc4)C(C)=C1C3(C)C)[C@]1(OC(=O)C3CC3)CO[C@@H]1C[C@@H]2O` (stereo partly drawn), the Tubulin polymerization ratio in series [1] came to 0.24. Further, the IC50 in series [2] came to 1 nM; in series [4], 0.25 nM. This compound also showed a T/C in series [5] of 188 mg kg-1 injection-1.

Regarding `CC(=O)O[C@H]1C(=O)[C@@]2(C)C([C@H](OC(=O)c3ccccc3)[C@]3(O)C[C@H](OC(=O)[C@H](O)C(NC(=O)c4ccccc4)c4ccccc4)C(C)=C1C3(C)C)[C@]1(OC(=O)C(C)C)CO[C@@H]1C[C@@H]2O` (stereo partly drawn), the Tubulin polymerization ratio in series [1] is 0.46. Besides, the figures for the IC50 in series [2] and in series [4] were 5 nM and 1.25 nM, respectively.

As to `CC(=O)O[C@H]1C(=O)[C@@]2(C)C([C@H](OC(=O)c3ccccc3)[C@]3(O)C[C@H](OC(=O)[C@H](O)C(NC(=O)c4ccccc4)c4ccccc4)C(C)=C1C3(C)C)[C@]1(OC(=O)C(Cl)(Cl)Cl)CO[C@@H]1C[C@@H]2O` (stereo partly drawn), in series [1], the Tubulin polymerization ratio came to 0.68. Further, the 50% inhibitory concentration (IC50) was determined as 4 nM in series [2] and 1.1 nM in series [4].

Regarding `CC(=O)O[C@H]1C(=O)[C@@]2(C)C([C@H](OC(=O)c3ccccc3)[C@]3(O)C[C@H](OC(=O)[C@H](O)C(NC(=O)c4ccccc4)c4ccccc4)C(C)=C1C3(C)C)[C@]1(OC(=O)c3ccccc3)CO[C@@H]1C[C@@H]2O` (stereo partly drawn), the Tubulin polymerization ratio in series [1] is listed as above 60. The results for the IC50 in series [2] and in series [4] were 410 nM and 103 nM, respectively.
